Assays:
[1] = target: T1, human CCR5 (Homo sapiens, UniProt P51681); test: inhibition of [^125 I]-RANTES binding to CHO/CCR5 cells (CCR5 antagonistic activity); details: Test Compound 1 μM, 100 pM [^125 I]-RANTES, room temperature 30 minutes; for inhibition at 1 µM: read-out: Inhibition Rate (%) to CCR5 binding
T1 construct: expressed in transfected cells; host or cells: CHO-K1 (plasmid pCKR5 in pcDNA3.1, geneticin-selected CHO/CCR5 cells)
Experimental: Cloning of CCR5 gene was carried out by PCR (polymerase chain reaction) from human spleen cDNA. With using 0.5 ng of spleen cDNA (Toyobo, QUICK-Clone cDNA) as template, PCR was performed in DNA Thermal Cycler 480 (Perkin-Elmer) (reaction conditions: 30 cycles of 95° C. for 1 minute, 60° C. for 1 minute, and 75° C. for 5 minutes) by adding primer set, 5'-CAGGATCCGATG […]-3' (25 pmol) and 5'-TCTAGATCACAAGCC CACAGATATTTCCTGCTCC-3' (25 pmol), which were designed referring to nucleotide sequence of CCR5 gene reported by Samson et al. (Biochemistry, 35(11), 3362-3367 (1996)) and by using TaKaRa EX Taq (Takara Shuzo). The resultant PCR product was subjected to agarose gel electrophoresis to collect about 1.0 kb DNA fragment, which was subjected to Original TA Cloning Kit (Funakoshi) to carry out cloning of CCR5 gene.
The plasmid obtained in the above (1) was digested with restriction enzymes XbaI (Takara Shuzo) and BamHI (Takara Shuzo) and subjected to agarose gel electrophoresis to collect about 1.0 kb DNA fragment. The DNA fragment was mixed with plasmid pcDNA3.1 (Funakoshi) for expression in animal cells, said plasmid being digested with XbaI and BamHI, and they were ligated with DNA Ligation Kit Ver.2 (Takara Shuzo). The resulting plasmid was subjected to transformation of competent cell of E. coli JM109 (Takara Shuzo) to obtain plasmid pCKR^5.
CHO-K1 cells were grown in 750 ml of tissue culture flask (Becton Dickinson) using Ham's F12 medium (Nihon Pharmaceutical) containing 10% fetal calf serum (Life Tech Oriental) and took off with 0.5 g/L trypsin-0.2 g/L EDTA (Life Tech Oriental). The cells were washed with PBS (Life Tech Oriental), centrifuged (1000 rpm, 5 minutes), and suspended in PBS. With using Gene Pulser (Bio-Rad Laboratories), DNA was introduced into the cells under the conditions shown below. That is, to the cuvette of 0.4 cm gap were added 8×10^6 cells and 10 μg of plasmid pCKR^5 for expression of human CCR5, and electroporation was carried out under 0.25 kV of voltage and 960 μF of capacitance. The cells were transferred into Ham's F12 medium (Nihon Pharmaceutical) containing 10% fetal calf serum, and cultivated for 24 hours. The cells were again took off and centrifuged, and suspended in Ham's F12 medium (Nihon Pharmaceutical) containing 10% fetal calf serum and 500 μg/ml of geneticin (Life Tech Oriental). The suspension was diluted to give 10^4 cells/ml of the suspension, which was inoculated on 96 well plate (Becton Dickinson) to give geneticin resistant cells. The resulting geneticin resistant cells were cultivated in 96 well plate (Becton Dickinson), and cells expressing CCR5 were selected from the geneticin resistant cells. That is, in assay buffer (Ham's F12 medium containing 0.5% BSA and 20 mM HEPES (Wako Pure Chemical, pH7.2) to which was added 200 pM of [^125 I]-RANTES (Amersham) as ligand, binding reaction as carried out at room temperature for 40 minutes, and the buffer was washed with cooled PBS. To the buffer was added 50 μl/well of 1M NaOH, and the mixture was stirred. Radioactivity was determined with γ-counter to select CHO/CCR5 cells which specifically bind to the ligand.
The CHO/CCR5 were inoculated on 96 well microplate (5×10^4 cells/well) and cultivated for 24 hours. The medium was removed by means of suction, and to each well was added assay buffer containing Test Compound (1 μM) and then 100 pM of [^125 I]-RANTES (Amersham) as ligand. Binding assay was carried out at room temperature for 30 minutes, and assay buffer was removed by means of suction. Each well was washed twice with cooled PBS, and 200 μl of Microscint-20 (Packard Instrument, Inc.) was added to each well. Radio-activity was determined with Top-Count Micro Scintillation Counter (Packard Instrument, Inc.).
According to the method described above, inhibition rate of Test Compound (whose number is referred to in the following Examples) to CCR5 binding.

[2] = system: HIV-1; test: Inhibitory Effect on HIV-1 Infection to MAGI^- CCR5 Cell; assay type: cell-based, HIV-1 BA-L; details: MAGI-CCR5 cells, 2 days
Experimental: The plasmid where β-galactosidase gene was ligated downstream of HIV-1 LTR was introduced into CD4 positive HeLa cell, to which human CCR5 was further introduced to obtain transformant MAGI^- CCR5. By using said transformant MAGI^- CCR5, degree of HIV-1 infection was calculated from β-galactosidase activity (blue color due to decomposition of 5-bromo-4-chloro-3-indolyl-β-D-galactopyranoside).
Specifically, MAGI-CCR5 cells were suspended in DMEM medium containing 10% serum to prepare 5×10^4 cells/ml suspension. To each well of 96 well plate was inoculated 200 μl of the suspension, and the cells were cultivated at 37° C. overnight. The medium was removed by means of suction, and to the residue was added 100 μl of the above medium containing 1.6μM of Test Compound 96 or 0.064 μM of Test Compound 248 and 100 μl of the above medium containing 300 PFU of HIV-1 BA-L cells. The cells were cultivated at 37° C. for 2 days. The medium was removed by means of suction. To the residue was added 200 μl of cell fixative (PBS containing 1% formaldehyde and 0.2% glutaraldehyde), and the mixture was allowed to stand at room temperature for 5 minutes and washed twice with PBS. […] The number of blue cells was counted by microscope and defined as the number of cells infected with HIV-1.

[3] = system: HIV-1; test: Inhibitory Effect on HIV-1 Infection to Human PBMC; assay type: cell-based, HIV-1 BA-L; details: 7 days, p24 antigen ELISA
Experimental: From normal person human peripheral blood mononuclear cells (PBMC) were separated, and the cells were stimulated with 10 μg/ml of PHA (Phytohemaglutinin) and 20U/ml of interleukin-2 (IL-2) for 3 days. The cells were suspended in RPMI-1640 medium containing 20% serum to prepare 1×10^6 /ml suspension. To the suspension were infected HIV-1 BA-L cells (20 ng as an amount of p24 antigen), and viruses were absorbed at 37° C. for 2 hours. The cells were washed and suspended in RPMI-1640 medium containing 20% serum and IL-2 20 U/ml to prepare 1×10^5 /ml suspension. To the PBMC suspension was added the same amount of a solution which contains 2.0 μM of Test Compound 96 or 0.32 μM of Test Compound 248, and the cells were cultivated at 37° C. for 7 days in carbon dioxide gas incubator. The amount of p24 antigen in supernatant of the cultivated medium was determined by enzyme-linked immunosorbent assay (ELISA) and defined as degree of HIV-1 infection.

T1 sequence (P51681 whole entry): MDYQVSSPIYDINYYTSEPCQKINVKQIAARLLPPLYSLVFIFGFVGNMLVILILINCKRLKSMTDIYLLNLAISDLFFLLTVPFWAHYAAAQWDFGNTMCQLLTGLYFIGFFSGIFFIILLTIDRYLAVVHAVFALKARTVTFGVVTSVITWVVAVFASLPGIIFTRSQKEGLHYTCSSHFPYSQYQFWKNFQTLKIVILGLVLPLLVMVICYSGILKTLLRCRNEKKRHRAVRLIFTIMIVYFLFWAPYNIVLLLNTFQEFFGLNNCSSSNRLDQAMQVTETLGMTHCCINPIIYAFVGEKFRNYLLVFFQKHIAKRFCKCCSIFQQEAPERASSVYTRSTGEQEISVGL

Row | inhibition at 1 µM [1] [%] | SMILES | also measured
1 | 88 | Cc1ccc(-c2ccc3c(c2)C=C(C(=O)Nc2ccc(C[N+]4(C)CCCCC4)cc2)CC3)cc1 [Compound 16, 1-methyl-1-[4-[7-(4-methylphenyl)-3,4-dihydronaphthalene-2-carboxamido]benzyl]piperidinium iodide] | 
2 | 100 | Cc1ccc(-c2ccc3c(c2)C=C(C(=O)Nc2ccc(C[N+]4(C)CCCCC4)cc2)CCC3)cc1 [Compound 92, 1-(N-(2-(4-methylphenyl)-6,7-dihydro-5H-benzocycloheptene-8-carbonyl)-4-aminobenzyl)-1-methylpiperidinium iodide] | 
3 |  | Cc1ccc(-c2ccc3c(c2)C=C(C(=O)Nc2ccc(C[N+]4(C)CCCCC4)cc2)CCO3)cc1 [Compound 97, 1-(N-(7-(4-methylphenyl)-2,3-dihydro-1-benzoxepin-4-carbonyl)-4-aminobenzyl)-1-methylpiperidinium chloride] | Inhibition Rate (%) to CCR5 binding [1]: 94%
4 | 100 | Cc1ccc(-c2ccc3c(c2)C=C(C(=O)Nc2ccc(CC[N+]4(C)CCCCC4)cc2)CCO3)cc1 [Compound 100, N-((7-(4-methylphenyl)-2,3-dihydro-1-benzoxepin-4-carbonyl)-2-(4-aminophenyl)ethyl)-N-methylpiperidinium iodide] | 
5 | 87 | Cc1ccc(-c2ccc3c(c2)C=C(C(=O)Nc2ccc(CN(C)C4CCOCC4)cc2)CCO3)cc1 [Compound 128, N-(4-(N-methyl-(N-tetrahydropyran-4-yl)aminomethyl)-phenyl)-7-(4-methylphenyl)-2,3-dihydro-1-benzoxepine-4-carboxamide] | 
6 | 99 | CC(C)(C)c1ccc(-c2ccc3c(c2)C=C(C(=O)Nc2ccc(CP4(=O)CCCCC4)cc2)CCO3)cc1 [Compound 180, N-(4-(pentamethylene)phosphorylmethyl-phenyl)-7-(4-tert-butylphenyl)-2,3-dihydro-1-benzoxepine-4-carboxamide] | 
7 | 80 | Cc1ccc(-c2ccc(/C=C/C(=O)Nc3ccc(CP4(=O)CCCCC4)cc3)s2)cc1 [Compound 209, (E)-N-(4-pentamethylenephosphorylmethylphenyl)-3-[5-(4-methylphenyl)-thiophen-2-yl]acrylic amide] | 
8 | 96 | Cc1ccc(-c2ccc3c(c2)C=C(C(=O)Nc2ccc(C[N+](C)(C)C4CCC(=O)CC4)cc2)CCO3)cc1 [Compound 249, N,N-dimethyl-N-(4-(((7-(4-methylphenyl)-2,3-dihydro-1-benzoxepin-4-yl)carbonyl)amino)benzyl)-N-(4-oxocyclohexyl)ammoniumchloride] | 
9 | 96 | CCOc1ccc(-c2ccc3c(c2)C=C(C(=O)Nc2ccc(C[N+](C)(C)C4CCOCC4)cc2)CCO3)cc1 [Compound 250, N-(4-(((7-(4-ethoxyphenyl)-2,3-dihydro-1-benzoxepin-4-yl)carbonyl)amino)benzyl)-N,N-dimethyl-N-(4-tetrahydropyranyl)ammonium chloride] | 
10 | 73 | Cc1ccc(-c2ccc3c(c2)C=C(C(=O)Nc2ccc(CP4(=O)OCCCO4)cc2)CCO3)cc1 [Reference Example 51, 2-(4-(7-(4-methylphenyl)-2,3-dihydro-1-benzoxepin-4-carbonylamino)benzyl)-1,3,2-dioxaphosphorinane-2-oxide] | 

Row | SMILES | inhibition at 1 µM [1] [%] | also measured
11 | Cc1ccc(-c2ccc3c(c2)C=C(C(=O)Nc2ccc(C[N+]4(C)CCCCC4)cc2)CCO3)cc1 [Compound 96, 1-(N-(7-(4-methylphenyl)-2,3-dihydro-1-benzoxepin-4carbonyl)-4-aminobenzyl)-1-methylpiperidinium iodide] | 93 | inhibition rate on HIV-1 infection ([2]; 100 μl medium containing 1.6 μM Test Compound 96 plus 100 μl medium with 300 PFU HIV-1 BA-L): 92%; inhibition rate on HIV-1 infection ([3]; same amount of solution containing 2.0 μM Test Compound 96 added): 96%
12 | Cc1ccc(-c2ccc3c(c2)C=C(C(=O)Nc2ccc(C[N+](C)(C)C4CCOCC4)cc2)CCC3)cc1 [Compound 248, N,N-dimethyl-N-(4-(((2-(4-methylphenyl)-6,7-dihydro-5H-benzocyclohepten-8-yl)carbonyl)amino)benzyl)-N-(4-tetrahydropyranyl)ammonium chloride] | 99 | inhibition rate on HIV-1 infection ([2]; 100 μl medium containing 0.064 μM Test Compound 248 plus 100 μl medium with 300 PFU HIV-1 BA-L): 100%; inhibition rate on HIV-1 infection ([3]; same amount of solution containing 0.32 μM Test Compound 248 added): 74%

From patent publication US6172061A, “Pharmaceutical composition for antagonizing CCR5 comprising anilide derivative” (Takeda Chemical Industries, Ltd., priority 1997, dated 2001)
